Experimental data: patent US12590062B2, “PD-1/PD-L1 inhibitors” (Gilead Sciences, Inc., priority 2017, dated 2026)

Tests used:
PD-1/PD-L1 = PD-1/PD-L1 (Homo sapiens, UniProt Q9NZQ7); experiment: PD-1/PD-L1 biochemical protein-protein interaction assay (ALPHA); type: binding; settings: 0.3 nM His tagged PD-L1, 2.5 nM biotinylated Fc-PD-1, 60 minutes at 25° C., read-out: IC50 PD-L1-PD-1 Alpha IC50-mono PD-L1-fcP-D1
Experimental: Biological Activity PD-1/PD-L1 & CTLA/CD80 Biochemical Protein-Protein Interaction Assay
Compounds were tested in biochemical protein-protein interaction assays to determine if they can specifically block the interaction between the extracellular domains of PD-1/PD-L1 or CTLA/CD80. Binding of the protein pairs is measured using a bead based Amplified Luminescent Proximity Homogeneous Assay (ALPHA) platform. Binding of each protein pair results in proximity of the donor and acceptor beads which leads to an increase in ALPHA signal. Disruption of the protein-protein interaction with a test compound results in a decrease in ALPHA signal. Assays are performed in 25 mM Hepes (pH 7.4), 150 mM NaCl, 3.4 mM EDTA, 0.005% Tween 20, and 0.01% BSA. Final protein concentration in the assays were 0.3 nM (His tagged PD-L1), 2.5 nM (biotinylated Fc-PD-1), 1 nM (His tagged CTLA4) and 1 nM (biotinylated CD80). After an assay reaction time of 60 minutes at 25° C., binding was measured with addition of 20 μg/mL ALPHA assay acceptor beads (anti-His coated) and […] ALPHA assay donor beads (streptavidin coated). IC50 values were calculated from the fit of the dose-response curves to a four-parameter equation. Representative data are shown below in Table 1.

PD-1/PD-L1 interaction = molecular target: T1, PD-1/PD-L1 interaction (Homo sapiens, UniProt Q9NZQ7); experiment: PD-1/PD-L1 NFAT reporter co-culture assay; type: cell-based; settings: Jurkat PD-1 NFAT-luciferase cells co-cultured with aAPC-PD-L1 CHO cells, 6 hrs at 37° C.; read-out: EC50 NFAT Luciferase
T1 construct: expressed in transfected cells; host or cells: CHO cells (aAPC-PD-L1) co-cultured with Jurkat cells overexpressing PD-1 and an NFAT-luciferase reporter
T1 sequence (Q9NZQ7 19-290): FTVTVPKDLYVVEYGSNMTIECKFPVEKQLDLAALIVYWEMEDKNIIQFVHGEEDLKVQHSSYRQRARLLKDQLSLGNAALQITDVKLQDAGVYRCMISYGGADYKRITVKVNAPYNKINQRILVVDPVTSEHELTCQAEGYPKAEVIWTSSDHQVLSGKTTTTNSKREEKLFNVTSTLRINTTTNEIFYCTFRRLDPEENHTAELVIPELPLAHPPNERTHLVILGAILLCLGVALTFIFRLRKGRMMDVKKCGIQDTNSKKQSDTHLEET
Outline: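 CHO aAPC-PD-L1 seeded overnight; PD-1/NFAT-luc Jurkat + cpd in RPMI 1640, 2% FBS added at once; 6 h, 37 °C; ONE-Glo luminescence; EC50, 4-parameter fit.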

Sequence of PD-1/PD-L1 (Q9NZQ7 19-238 limits assumed): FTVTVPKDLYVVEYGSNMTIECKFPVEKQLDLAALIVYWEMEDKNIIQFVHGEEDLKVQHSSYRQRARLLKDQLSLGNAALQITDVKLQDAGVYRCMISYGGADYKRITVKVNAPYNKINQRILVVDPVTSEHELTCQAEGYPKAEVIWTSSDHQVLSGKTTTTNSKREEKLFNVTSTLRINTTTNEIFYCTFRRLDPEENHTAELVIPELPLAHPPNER

Row | SMILES | IC50 (PD-1/PD-L1) [nM] | EC50 (PD-1/PD-L1 interaction) [nM]
1 | COc1nc(OCc2cccc(-c3cccc(COc4nc(OC)c(CN5CC[C@H]5C(=O)O)cc4Br)c3C)c2C)c(Br)cc1CN1CC[C@H]1C(=O)O [Example 59, (2S,2′S)-1,1′-(((((2,2′-dimethyl-[1,1′-biphenyl]-3,3′-diyl)bis(methylene))bis(oxy))bis(5-bromo-2-methoxypyridine-6,3-diyl))bis(methylene))bis(azetidine-2-carboxylic acid)] | 0.1 | 1250
2 | COc1nc(OCc2cccc(-c3cccc(COc4nc(OC)c(CN5CC[C@H]5C(=O)O)cc4Br)c3C)c2C)ccc1CN1CC[C@H]1C(=O)O [Example 60, (S)-1-((6-((3′-(((3-bromo-5-(((S)-2-carboxyazetidin-1-yl)methyl)-6-methoxypyridin-2-yl)oxy)methyl)-2,2′-dimethyl-[1,1′-biphenyl]-3-yl)methoxy)-2-methoxypyridin-3-yl)methyl)azetidine-2-carboxylic acid] | 2.3 | ≥ 50000
3 | Cc1c(COc2cc(O)c(CNC[C@@H](O)CC(=O)O)cc2Cl)cccc1-c1cccc(COc2cc(OCc3cncc(C#N)c3)c(CNC[C@@H](O)CC(=O)O)cc2Cl)c1C [Example 67, (S)-4-((4-((3′-((4-((((S)-3-carboxy-2-hydroxypropyl)amino)methyl)-2-chloro-5-((5-cyanopyridin-3-yl)methoxy)phenoxy)methyl)-2,2′-dimethyl-[1,1′-biphenyl]-3-yl)methoxy)-5-chloro-2-hydroxybenzyl)amino)-3-hydroxybutanoic acid] | 1 | 1320
4 | Cc1c(COc2ccc(CNCCO)cc2)cccc1-c1cccc(COc2cc(OCc3cncc(C#N)c3)c(CNCCO)cc2Cl)c1C [Example 69, 5-((4-chloro-2-(((2-hydroxyethyl)amino)methyl)-5-((3′-((4-(((2-hydroxyethyl)amino)methyl)phenoxy)methyl)-2,2′-dimethyl-[1,1′-biphenyl]-3-yl)methoxy)phenoxy)methyl)nicotinonitrile] | 14.2 | 1740
5 | CC(=O)NCCNCc1cc(Cl)c(OCc2cccc(-c3cccc(COc4cc(OCc5cncc(C#N)c5)c(CNCCNC(C)=O)cc4Cl)c3C)c2C)cc1OCc1cncc(C#N)c1 [Example 70, N,N′-(((((((2,2′-dimethyl-[1,1′-biphenyl]-3,3′-diyl)bis(methylene))bis(oxy))bis(5-chloro-2-((5-cyanopyridin-3-yl)methoxy)-4,1-phenylene))bis(methylene))bis(azanediyl))bis(ethane-2,1-diyl))diacetamide] | 10.6 | 902
6 | Cc1c(COc2ccc(CNCCO)cc2Cl)cccc1-c1cccc(COc2cc(OCc3cncc(C#N)c3)c(CNCCO)cc2Cl)c1C [Example 71, 5-((4-chloro-5-((3′-((2-chloro-4-(((2-hydroxyethyl)amino)methyl)phenoxy)methyl)-2,2′-dimethyl-[1,1′-biphenyl]-3-yl)methoxy)-2-(((2-hydroxyethyl)amino)methyl)phenoxy)methyl)nicotinonitrile] | 26.5 | 1030
7 | COc1nc(OCc2cccc(-c3cccc(COc4ccc(CNCCO)c(OC)n4)c3C#N)c2C)ccc1CNCCO [Example 72, 3,3′-bis(((5-(((2-hydroxyethyl)amino)methyl)-6-methoxypyridin-2-yl)oxy)methyl)-2′-methyl-[1,1′-biphenyl]-2-carbonitrile] | 8 | 2510
8 | Cc1c(COc2cc(OCc3cncc(C#N)c3)c(CNCCCO)cc2Cl)cccc1-c1cccc(COc2cc(OCc3cncc(C#N)c3)c(CNCCCO)cc2Cl)c1C [Example 73, 5,5′-((((((2,2′-dimethyl-[1,1′-biphenyl]-3,3′-diyl)bis(methylene))bis(oxy))bis(4-chloro-6-(((3-hydroxypropyl)amino)methyl)-3,1-phenylene))bis(oxy))bis(methylene))dinicotinonitrile] | 56.1 | 2620

Continued, values first:

Row | IC50 (PD-1/PD-L1) [nM] | EC50 (PD-1/PD-L1 interaction) [nM] | SMILES
9 | 0.9 | 10000 | COc1nc(OCc2cccc(-c3cccc(COc4ccc(CNCC(O)C(F)(F)C(=O)O)c(OC)n4)c3C)c2C)ccc1CNCC(O)C(F)(F)C(=O)O (stereo not shown) [Example 84, 4,4′-((((((2,2′-dimethyl-[1,1′-biphenyl]-3,3′-diyl)bis(methylene))bis(oxy))bis(2-methoxypyridine-6,3-diyl))bis(methylene))bis(azanediyl))bis(2,2-difluoro-3-hydroxybutanoic acid)]
10 | 0.8 | 863 | COc1nc(OCc2cccc(-c3cccc(COc4nc(OC)c(CNC[C@@H](O)CC(=O)O)cc4C)c3C)c2C)c(C)cc1CNC[C@@H](O)CC(=O)O [Example 119, (3S,3′S)-4,4′-((((((2,2′-dimethyl-[1,1′-biphenyl]-3,3′-diyl)bis(methylene))bis(oxy))bis(2-methoxy-5-methylpyridine-6,3-diyl))bis(methylene))bis(azanediyl))bis(3-hydroxybutanoic acid)]
11 | 2 | 1300 | C=Cc1cc(CNC[C@@H](O)CC(=O)O)c(OC)nc1OCc1cccc(-c2cccc(COc3nc(OC)c(CNC[C@@H](O)CC(=O)O)cc3C=C)c2C)c1C [Example 120, (3S,3′S)-4,4′-((((((2,2′-dimethyl-[1,1′-biphenyl]-3,3′-diyl)bis(methylene))bis(oxy))bis(2-methoxy-5-vinylpyridine-6,3-diyl))bis(methylene))bis(azanediyl))bis(3-hydroxybutanoic acid)]
12 | 1 | 392 | Cc1c(COc2nc(OCc3cncs3)c(CNC[C@@H](O)CC(=O)O)cc2Br)cccc1-c1cccc(COc2nc(OCc3cncs3)c(CNC[C@@H](O)CC(=O)O)cc2Br)c1C [Example 138, (3S,3′S)-4,4′-((((((2,2′-dimethyl-[1,1′-biphenyl]-3,3′-diyl)bis(methylene))bis(oxy))bis(5-bromo-2-(thiazol-5-ylmethoxy)pyridine-6,3-diyl))bis(methylene))bis(azanediyl))bis(3-hydroxybutanoic acid)]
13 | 5.1 | 23900 | Cc1c(COc2nc(OCc3cnnn3Cc3ccccc3)c(CNC[C@@H](O)CC(=O)O)cc2Br)cccc1-c1cccc(COc2nc(OCc3cnnn3Cc3ccccc3)c(CNC[C@@H](O)CC(=O)O)cc2Br)c1C [Example 139, (3S,3′S)-4,4′-((((((2,2′-dimethyl-[1,1′-biphenyl]-3,3′-diyl)bis(methylene))bis(oxy))bis(2-((1-benzyl-1H-1,2,3-triazol-5-yl)methoxy)-5-bromopyridine-6,3-diyl))bis(methylene))bis(azanediyl))bis(3-hydroxybutanoic acid)]
14 | 3.6 | ≥ 50000 | Cc1c(COc2nc(OCC3CC3)c(CNC[C@@H](O)CC(=O)O)cc2Br)cccc1-c1cccc(COc2nc(OCC3CC3)c(CNC[C@@H](O)CC(=O)O)cc2Br)c1C [Example 141, (3S,3′S)-4,4′-((((((2,2′-dimethyl-[1,1′-biphenyl]-3,3′-diyl)bis(methylene))bis(oxy))bis(5-bromo-2-(cyclopropylmethoxy)pyridine-6,3-diyl))bis(methylene))bis(azanediyl))bis(3-hydroxybutanoic acid)]
